Data on two compounds can be found in PMC11729428, “New Potent Inhibitor of Transforming Growth Factor-Beta (TGFβ) Signaling that is Efficacious against Microsatellite Stable Colorectal Cancer Metastasis in Combination with Immune Checkpoint Therapy in Mice” (ACS Pharmacology & Translational Science, 2024).

One data set deals with T1, ALK5 (TGFBR1) (Homo sapiens, UniProt P36897, T204D).
T1 sequence (P36897 200-503 T204D): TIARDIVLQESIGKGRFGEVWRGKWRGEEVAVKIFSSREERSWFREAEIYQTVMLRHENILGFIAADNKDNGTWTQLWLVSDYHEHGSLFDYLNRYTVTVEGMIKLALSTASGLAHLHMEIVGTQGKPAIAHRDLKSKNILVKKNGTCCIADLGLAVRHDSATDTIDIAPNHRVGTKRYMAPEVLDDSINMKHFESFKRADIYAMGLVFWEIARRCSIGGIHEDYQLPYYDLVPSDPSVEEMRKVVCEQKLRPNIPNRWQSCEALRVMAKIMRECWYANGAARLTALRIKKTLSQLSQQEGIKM
The data set is described as follows: Radiometric in vitro kinase activity assay (Kinase Profiler). The class given is biochemical. The method, then: 5. Methods for In vitro characterizations of HYL001
Kinase affinity and selectivity […]
The activity, measured as IC50, of inhibitors was determined by radiometric γ-33P-ATP-mediated in vitro phosphorylation assays, using the Kinase Profiler service from Eurofins Pharma Discovery Services (Wolverhampton, UK) and Eurofins Cerep (Celle L’Evescault, France). Compounds, prepared in 100% DMSO, were tested using a 9-point curve with half -log serial dilutions (1–10,000 nM). […]

A short description of data set [1]: Plasma protein binding by rapid equilibrium dialysis, mouse plasma. The method, then:
5. Methods for In vitro characterizations of HYL001 […]
Rapid equilibrium dialysis was performed in triplicates with a rapid equilibrium dialysis (RED) by Sai Life Sciences Lt. (Telangana, India). The RED device contains a dialysis membrane with a molecular weight cut -off […]
of 8,000 Da, separating two chambers for plasma and buffer, respectively. […]
were added to the plasma chamber, versus phosphate buffer saline (pH 7.4) to the buffer chamber. Dialysis was performed for 4 h with 100 RPM shaking at 37 °C. […]
compounds in plasma were either frozen immediately (T0 sample), or incubated at 37 °C for 4 h without dialysis (non-dialysed), respectively.
Following dialysis, an aliquot was removed from either chamber and diluted with equal volume of opposite matrix to nullify the matrix effect. Similarly, buffer was added to recovery and stability samples. Next, acetonitrile (containing internal standard, glipizide) was added to the mixtures for protein precipitation and vortexed for 5 minutes. The samples were centrifuged at 4000 RPM at 4 °C for 10 min and the supernatant was submitted for liquid chromatography mass spectrometry (LC-MS/MS) analysis. Samples were monitored for parent compound using multiple reaction monitoring (MRM) mode.
The peak area ratios (PAR, analyte versus internal standard) in plasma vs bufffer were used to determine the fraction of compound bound to plasma proteins. The following equation was used to determine the extent of plasma protein binding: percent free drug = 100% x (PARbuffer / PARplasma); percent bound drug = 100 - % free drug. Recovery was calculated as 100% x (PARplasma + PARbuffer)dialysed / (PARplasma)non-dialysed; stability as 100% x (PAR)non-dialysed / (PARplasma)frozen at T0. […]

Data set [2] has as its system panel of key proteins (cell receptors, neurotransmitter transporters, and ion channels). The data set is described as follows: In vitro safety pharmacology, binding (SafetyScreen 44). To be noted: 10 μM HYL001. As for the experimental part:
To identify potential adverse off-target drug interactions and derisk the development of HYL001 as a drug,[22] we performed binding and enzymatic inhibition assays with a panel of key proteins (mainly cell receptors, neurotransmitter transporters, and ion channels). […]
analysis by LC-MS/MS, using MRM mode. […]
related to phase I and phase II metabolism, respectively.
The PARs were used for calculation of metabolic stability. The 0 min area ratio was considered as 100%. The […]
incubation volume / number of cells (in millions) x K e. To calculate into full body context, the values of 120 […]
In vitro safety pharmacology […]
compared with historical values determined at Eurofins. Binding was defined as the % inhibition of the signal […]
enzyme activity. […] Results showing
The tail current amplitude, induced by a one […]
and expressed as % inhibition.
The Ames test was performed at Xenomatrix (Allschwil, Switzerland). Bacteria from the S. typhimurium

Data set [3] in a line: Plasma pharmacokinetics after single oral administration in rats. The class given is in vivo, Sprague Dawley rats. To be noted: 71 mg/kg, rats (♂ SD). The method, then: We assessed the in vivo pharmacokinetic properties of HYL001 after a single oral administration (dose of 71 mg/kg) in BALB/c mice as well as in Sprague–Dawley (SD) Rats. Liquid chromatography–tandem mass spectrometry (LC/MS/MS) was used for the determination of HYL001 in plasma (Figure S2 and Table 2).
6. Methods for in vivo characterizations of HYL001
Similarly, three rats were used in this study. Animals were administered orally with a suspension formulation of […]

The target in another data set is T2, ALK4 (ACVR1B) (Homo sapiens, UniProt P36896).
T2 sequence (P36896 24-505): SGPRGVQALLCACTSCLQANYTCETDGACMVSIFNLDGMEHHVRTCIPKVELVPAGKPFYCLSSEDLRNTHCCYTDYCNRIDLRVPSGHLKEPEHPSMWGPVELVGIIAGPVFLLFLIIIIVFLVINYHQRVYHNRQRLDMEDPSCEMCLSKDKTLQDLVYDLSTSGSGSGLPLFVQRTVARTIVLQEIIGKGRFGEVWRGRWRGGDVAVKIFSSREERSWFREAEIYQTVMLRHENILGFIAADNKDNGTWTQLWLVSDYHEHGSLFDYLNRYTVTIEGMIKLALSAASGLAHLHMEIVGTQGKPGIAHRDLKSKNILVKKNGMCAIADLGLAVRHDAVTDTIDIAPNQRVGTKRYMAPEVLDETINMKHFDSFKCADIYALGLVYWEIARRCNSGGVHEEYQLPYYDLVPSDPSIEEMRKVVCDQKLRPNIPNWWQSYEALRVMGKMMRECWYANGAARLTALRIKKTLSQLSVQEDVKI
The settings on record: reported data ref 15, read-out: Binding constant (Kd) ALK4 (ACVR1B), cited from earlier work.

The next data set addresses T3, TGFBR2 (Homo sapiens, UniProt P37173).
T3 construct: purchased Eurofins/DiscoveryX (KINOMEscan service)
Details: method as in earlier work. To be noted: reported data ref 15; read-out: Binding constant (Kd) TGFBR2; cited from earlier work.

A further data set deals with T4, ALK1 (ACVRL1) (Homo sapiens, UniProt P37023).
T4 construct: purchased Eurofins/DiscoveryX (KINOMEscan service)
Details: method as in earlier work. To be noted: reported data ref 15; read-out: Binding constant (Kd) ALK1 (ACVRL1); cited from earlier work.

The next data set deals with ALK5. The settings on record: cited from earlier work.
The mark [4] stands for this setting: male, Sprague-Dawley, rat, plasma.

Where two headings read alike, the source gives them in different places.

T4 sequence (P37023 22-503): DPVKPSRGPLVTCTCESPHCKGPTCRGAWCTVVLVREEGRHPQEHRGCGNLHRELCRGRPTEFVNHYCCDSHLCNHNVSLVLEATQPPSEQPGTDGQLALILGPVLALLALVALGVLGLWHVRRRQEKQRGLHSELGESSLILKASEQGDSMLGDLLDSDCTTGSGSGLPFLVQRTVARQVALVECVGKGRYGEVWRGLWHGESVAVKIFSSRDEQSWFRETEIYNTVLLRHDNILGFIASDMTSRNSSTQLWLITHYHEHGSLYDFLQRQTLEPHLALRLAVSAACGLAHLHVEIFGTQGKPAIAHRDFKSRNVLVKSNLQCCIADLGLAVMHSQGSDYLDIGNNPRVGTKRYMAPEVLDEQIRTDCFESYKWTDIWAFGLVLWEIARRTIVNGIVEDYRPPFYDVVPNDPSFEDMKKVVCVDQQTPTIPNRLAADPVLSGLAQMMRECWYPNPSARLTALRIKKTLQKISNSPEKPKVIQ
T3 sequence (P37173 23-567): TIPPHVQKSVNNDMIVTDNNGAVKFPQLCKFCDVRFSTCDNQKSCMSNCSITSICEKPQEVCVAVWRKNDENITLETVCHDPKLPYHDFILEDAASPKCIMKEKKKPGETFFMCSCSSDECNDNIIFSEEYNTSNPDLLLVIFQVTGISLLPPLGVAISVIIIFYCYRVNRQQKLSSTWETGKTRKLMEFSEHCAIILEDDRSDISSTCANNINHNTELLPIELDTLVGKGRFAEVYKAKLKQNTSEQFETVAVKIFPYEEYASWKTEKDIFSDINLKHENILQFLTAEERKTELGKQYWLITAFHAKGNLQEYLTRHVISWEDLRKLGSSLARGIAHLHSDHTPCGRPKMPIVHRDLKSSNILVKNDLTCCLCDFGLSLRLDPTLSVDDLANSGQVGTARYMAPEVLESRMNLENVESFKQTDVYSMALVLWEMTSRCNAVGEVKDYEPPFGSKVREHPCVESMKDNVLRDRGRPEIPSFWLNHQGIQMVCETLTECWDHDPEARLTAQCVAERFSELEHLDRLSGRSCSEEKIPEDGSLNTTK

For `Cc1cccc(-c2nn3c(c2-c2ccnc4ccc(O)cc24)CCC3)n1` [HYL001, 4-(2-(6-Methylpyridin-2-yl)-5,6-dihydro-4H-pyrrolo[1,2-b]pyrazol-3-yl)quinolin-6-ol], at ALK5 (TGFBR1), the “Fold higher ALK5 IC50 than that of vactosertib” value was “around 3.5 fold”. Also, at ALK5 (TGFBR1) (ALK5 IC50), the “Fold increase (in vitro potency) compared to galunisertib” value is given as ~2.5 fold. In addition, the IC50 at ALK5 (TGFBR1) (recombinant TGFBR1 fragment 200–end (T204D), read-out: kinase inhibition IC50, ALK5 (TGFBR1)) turned out to be 177 nM. The “% Compound remaining at 4 hrs” value in data set [1] (mice plasma, 37 °C) was 113.1%. In data set [1] (mouse, plasma (rapid equilibrium dialysis device), pH 7.4), the recovery at 4 h, 5 µM amounted to 112%. Besides, the fraction unbound at 4 h, 5 µM in data set [1] (mouse, plasma, pH 7.4) was 0.048. Also, the “Inhibition of binding to any safety panel target” value in data set [2] is ≤ 50%. Also, the half-life in data set [3] (male, Sprague-Dawley, rat, plasma, po) was ~5 h. In data set [3] (setting [4]), this compound showed an AUC(0-inf) of 22000 ng·h/mL, an AUC(0-t) of 21600 ng·h/mL, a CL/F of 53.8 mL/min/kg and a peak concentration (Cmax) of 8540 ng/mL. Further, the Tmax in data set [3] (setting [4]) was 0.67 h. Further, the Vd/F in data set [3] (male, Sprague-Dawley, rat, plasma, read-out: Vss/F) amounted to 10.8 L/kg. In data set [3], this compound gave a T1/2 of 4.8 h.
Turning to `Cc1cccc(-c2nn3c(c2-c2ccnc4ccc(C(N)=O)cc24)CCC3)n1` [galunisertib], the Kd on ALK4 (ACVR1B) (listed as Galunisertib) is 77.7 nM; on ALK4 (ACVR1B) it was ~78 nM; on TGFBR2 it was 208 nM; on ALK1 (ACVRL1) it was 24900 nM. Also, in the data set on ALK5, the half-maximal inhibitory concentration (IC50) is […].
